Counter-ions that a name gives are not always drawn.
Key:
SHP2 = SHP2 (Homo sapiens (Human), UniProt Q06124); test: SHP2 Biochemical Assay (DiFMUP conversion, pIRS1 activating peptide); details: DiFMUP substrate, 0.25 μM pIRS1 peptide, 30 min pre-incubation; average where more than one data point; read-out: SHP2 (IC50)
pERK in HCC827 cells = test: Cellular pERK Inhibition Assay (phospho-p44/42 MAPK sandwich ELISA); format: cell-based
Description: Cellular pERK Inhibition Assay
HCC827 cells (ATCC, Manassas, USA) were seeded into 96-well plates at a density of 1×10^5 cells/well in RPMI medium supplemented with 10% FBS and incubated 24 h. Compounds were diluted first in DMSO and then into serum-free medium, before being added to cells in triplicate to give a final concentration of 0.1% DMSO. Plates were incubated at 37° C. for 0.5 hours in a humidified atmosphere of 5% CO2 in air.
Following compound treatment, medium was removed and cells were lysed by adding 50 μL of lysis buffer (Cell Signalling Technology, Beverly, USA) to each well. Plates were then incubated at room temperature for 25 minutes with shaking. pERK levels were measured in lysates using the PathScan® phospho-p44/42 MAPK (Thr202/Tyr204) sandwich ELISA (Cell Signalling Technology, Beverly, USA) as per kit instructions. Briefly, 50 μL of cell lysate was added to 50 μL of ELISA sample diluent in a 96-well ELISA plate and incubated overnight at 4° C. Following washing, 100 μL of detection antibody was added per well and the plates incubated for 1 hour at 37° C. […] Plates were read at 450 nm on a SpectraMax Gemini reader (Molecular Devices, Uckfield, UK).
The average signal from blank wells (no cells added) was subtracted from the signals from each sample well. Levels of pERK were then expressed as “percent of control”, using DMSO treated samples as control. […]

| Molecule | IC50 (SHP2) [nM] | Cellular pERK assay (percent at stated concentration) (pERK in HCC827 cells; at 1 μM) [% at 1 μM] | Cellular pERK assay (percent at stated concentration) (pERK in HCC827 cells; at 10 uM) [% at 10 uM] |
| --- | --- | --- | --- |
| COc1cc2c(Cl)c(-c3c[nH]c4nc(N5[C@@H]6CC[C@H]5C[C@@H](N)C6)cnc34)ccc2nc1C [Example 42, endo-8-[7-(5-chloro-3-methoxy-2-methylquinolin-6-yl)-5H-pyrrolo[2,3-b]pyrazin-3-yl]-8-azabicyclo[3.2.1]octan-3-amine] | 17 | 24 |  |
| COc1ccc2ccc(-c3c[nH]c4nc(N5[C@@H]6CC[C@H]5C[C@@H](N)C6)cnc34)c(Cl)c2n1 [Example 27, endo-8-[7-(8-chloro-2-methoxyquinolin-7-yl)-5H-pyrrolo[2,3-b]pyrazin-3-yl]-8-azabicyclo[3.2.1]octan-3-amine, hydrochloride salt] | 17 |  | 53 |
| 2-(5-{3-[endo-3-amino-8-azabicyclo[3.2.1]octan-8-yl]-5H-pyrrolo[2,3-b]pyrazin-7-yl}-3,4-dichloro-2H-indazol-2-yl)ethan-1-ol [Example 36] | 6 |  |  |

From US11466016B2, “Pharmaceutical compounds” (priority 2018, dated 2022)
